# Assay results from article PMC9953885 (Biosensors, 2023).
# Where a name gives a salt, the structure may show the parent alone.
# Target: T1, human pancreatic lipase (hPL) (Homo sapiens, UniProt P16233)
# T1 construct: gene PNLIP
# T1 sequence (P16233 17-465): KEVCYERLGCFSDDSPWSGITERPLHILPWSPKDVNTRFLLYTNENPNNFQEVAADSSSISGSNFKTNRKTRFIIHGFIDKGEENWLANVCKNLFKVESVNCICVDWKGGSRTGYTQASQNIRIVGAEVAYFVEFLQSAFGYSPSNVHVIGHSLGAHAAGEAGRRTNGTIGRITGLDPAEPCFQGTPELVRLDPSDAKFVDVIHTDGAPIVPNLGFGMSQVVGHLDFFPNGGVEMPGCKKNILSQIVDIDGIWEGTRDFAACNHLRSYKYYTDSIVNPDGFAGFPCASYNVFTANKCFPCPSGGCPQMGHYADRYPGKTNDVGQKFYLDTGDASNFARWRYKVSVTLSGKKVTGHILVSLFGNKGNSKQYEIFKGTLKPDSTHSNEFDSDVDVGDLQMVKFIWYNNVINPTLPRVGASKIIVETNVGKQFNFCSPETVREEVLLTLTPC
# Settings: 10 µM; inhibitor
# Procedure: First, we evaluated the inhibitory effect of 94 natural products derived from herbs and 94 drugs on hPL. In our high-throughput screening system, 1 ug/mL hPL was used, and the final concentration of the 94 natural products derived from herbs and 94 drugs used was 10 μM. Other conditions were the same as in the selectivity experiments. […] RLE was incubated with hPL and various enzymes, such as hCES1A, hCES2A, CA, AchE, BchE, 5-HKE, lysozyme, trypsin, thrombin, α-CT, FAP, PREP, pepsin, α-amylase, plasmin, notum and hSA, in a 100 µL incubation mixture consisting of Tris-HCl (pH = 7.4, 25 mM), NaCl (150 mM), CaCl2 (1 mM) and porcine bile salt (0.1 mg/mL) at a concentration of 1.5 µg/mL. The reaction was initiated by adding RLE to the preincubated enzyme mixture at 37 °C, and metabolite formation was determined by measuring the fluorescence intensity of resorufin at 590 nm. In addition, several amino acids (IIe, His, Trp, Val, Leu, Tyr, Ala, Thr, Pro, Asp, Lys, Met, Cys, Ser, Phe, Gly, Glu and Gln), ions (Ni^2+, Ca^2+, Na^+, K^+, Cu^2+, Zn^2+, Mg^2+, NH4^+, Cu^+, Fe^2+ and CN^-) and GSH were measured. The concentration of these interfering factors was 5 μM. […] In this case, a visual high-throughput assay was established to screen hPL inhibitors, using RLE as a fluorogenic substrate in a 96-well microplate.
row,Compound,% of control remaining [%]
1,COc1ccc(-c2cc(=O)c3c(OC)c(OC)c(OC)c(OC)c3o2)cc1OC [Nobiletin],80.44
2,CC1(C)OC(=O)C=C[C@]2(C)[C@H]3CC[C@@]4(C)[C@H](c5ccoc5)OC(=O)[C@H]5O[C@]54[C@]3(C)C(=O)C[C@@H]12 [Obacunon],79.60
3,CC1COc2c(N3CCN(C)CC3)c(F)cc3c(=O)c(C(=O)O)cn1c23 (centres unmarked) [Ofloxacin],87.95
4,COc1ccc2[nH]c([S+]([O-])Cc3ncc(C)c(OC)c3C)nc2c1 (centres unmarked) [Omeprazole],94.84
5,C=C1C(=O)[C@]23[C@H](O)[C@H]1CC[C@H]2[C@@]12CO[C@]3(O)[C@@H](O)[C@@H]1C(C)(C)CC[C@@H]2O [Oridonin],66.82
6,O=c1cc(-c2ccc(O)c(O)c2)oc2c([C@@H]3O[C@H](CO)[C@@H](O)[C@H](O)[C@H]3O)c(O)cc(O)c12 [Orientin],76.06
7,CCOC(=O)C1=C[C@@H](OC(CC)CC)[C@H](NC(C)=O)[C@@H](N)C1 [Oseltamivir phosphate],101.77
8,O=C(O)CCc1nc(-c2ccccc2)c(-c2ccccc2)o1 [Oxaprozin],81.83
9,O=C1C=CC[C@@H]2[C@H]3CCC[N+]4([O-])CCC[C@@H](CN12)[C@@H]34 (some centres unmarked) [Oxysophocarpine],98.58
10,COc1cc2c(cc1OC)-c1cc3ccc(OC)c(OC)c3c[n+]1CC2 [Palmatine chloride],87.01
11,O=C(CCc1ccc(O)cc1)c1c(O)cc(O)cc1O [Phloretin],81.23
12,O=C(CCc1ccc(O)cc1)c1c(O)cc(O)cc1O[C@@H]1O[C@H](CO)[C@@H](O)[C@H](O)[C@H]1O [Phlorizin dihydrate],85.09
13,COc1c(OC)c2occc2c2oc(=O)ccc12 [Pimpinellin],61.25
14,O=C1C[C@@H](c2ccccc2)Oc2cc(O)cc(O)c21 [Pinocembrin],91.25
15,C[C@@H]1O[C@@H](O[C@H]2[C@H](OC(=O)[C@]34CCC(C)(C)C[C@H]3C3=CC[C@@H]5[C@@]6(C)C[C@H](O)[C@H](O[C@@H]7O[C@H](CO)[C@@H](O)[C@H](O)[C@H]7O)C(CO)(CO)[C@@H]6CC[C@@]5(C)[C@]3(C)C[C@H]4O)OC[C@H](O)[C@@H]2O)[C@H](O)[C@H](O)[C@H]1O[C@@H]1OC[C@@H](O)[C@H](O[C@@H]2OC[C@](O)(CO)[C@H]2O)[C@H]1O [Platycodin D],89.14
16,C/C=C(/C)C(=O)O[C@H]1[C@@H](OC(=O)CC(C)C)c2c(ccc3ccc(=O)oc23)OC1(C)C [Praeruptorin E],87.81
17,C[C@]12C=CC(=O)C=C1CC[C@@H]1[C@@H]2[C@@H](O)C[C@@]2(C)[C@H]1CC[C@]2(O)C(=O)CO [Prednisolone],82.34
18,CCCN(CCC)S(=O)(=O)c1ccc(C(=O)O)cc1 [Probenecid],93.75
19,Oc1cc(O)c2c(c1)OC(c1ccc(O)c(O)c1)C(OC1(c3ccc(O)c(O)c3)Oc3cc(O)cc(O)c3C(O)C1O)C2 (centres unmarked) [Procyanidin],5.72
20,O=c1c(O)c(-c2ccc(O)c(O)c2)oc2cc(O)cc(O)c12 [Quercetin],47.29
21,C=C[C@H]1CN2CC[C@H]1C[C@@H]2[C@@H](O)c1ccnc2ccc(OC)cc12 [Quinidine],100.77
22,CCC(CC)COC(=O)[C@H](C)N[P@](=O)(OC[C@H]1O[C@@](C#N)(c2ccc3c(N)ncnn23)[C@H](O)[C@@H]1O)Oc1ccccc1 [Remdesivir],98.67
23,COC(=O)[C@H]1[C@H]2C[C@@H]3c4[nH]c5cc(OC)ccc5c4CCN3C[C@H]2C[C@@H](OC(=O)c2cc(OC)c(OC)c(OC)c2)[C@@H]1OC [Reserpine],94.24
24,CC(C)c1nc(CN(C)C(=O)N[C@H](C(=O)N[C@@H](Cc2ccccc2)C[C@H](O)[C@H](Cc2ccccc2)NC(=O)OCc2cncs2)C(C)C)cs1 [Ritonavir],97.04
25,O=C(NC[C@H]1CN(c2ccc(N3CCOCC3=O)cc2)C(=O)O1)c1ccc(Cl)s1 [Rivaroxaban],118.66
26,COc1ccc(-c2cc(=O)c3c(O)c(OC)c(OC)cc3o2)cc1 [Salvigenin],75.70
27,Oc1ccc2c(c1)OCO2 [Sesamol],103.95

row,Compound,% of control remaining [%]
1,CC(C)=CC[C@@H](O)C1=CC(=O)c2c(O)ccc(O)c2C1=O [Shikonin],107.55
2,CCC(C)(C)C(=O)O[C@H]1C[C@@H](C)C=C2C=C[C@H](C)[C@H](CC[C@@H]3C[C@@H](O)CC(=O)O3)[C@H]21 [Simvastatin],84.18
3,COC1=C[C@@H]2[C@@H]3Cc4ccc(OC)c(O)c4[C@]2(CCN3C)CC1=O [Sinomenine],101.42
4,CC1(C)[C@H](C(=O)O)N2C(=O)C[C@H]2S1(=O)=O [Sulbactam sodium],88.89
5,Cc1cc(NS(=O)(=O)c2ccc(N)cc2)no1 [Sulfamethoxazole],98.83
6,O=C1c2c(O)cc(O)cc2O[C@H](c2ccc(O)c(O)c2)[C@H]1O [TGaxifolin],97.17
7,CC(C)OC(=O)OCOP(=O)(CO[C@H](C)Cn1cnc2c(N)ncnc21)OCOC(=O)OC(C)C [Tenofovir disoproxil],91.86
8,CN(C/C=C/C#CC(C)(C)C)Cc1cccc2ccccc12 [Terbinafine Hydrochloride],91.01
9,CC(C)(C)NCC(O)c1cc(O)cc(O)c1 (centres unmarked) [Terbutaline],108.89
10,CCC(=O)O[C@H]1CC[C@H]2[C@@H]3CCC4=CC(=O)CC[C@]4(C)[C@H]3CC[C@]12C [Testosterone propionate],65.37
11,CCN(CC)CCNC(=O)c1cc(S(C)(=O)=O)ccc1OC [Tiapride],108.20
12,C[C@H]1CC[C@@]2(OC1)O[C@H]1C[C@H]3[C@@H]4CC[C@@H]5C[C@@H](O[C@@H]6O[C@H](CO)[C@H](O)[C@H](O)[C@H]6O[C@@H]6O[C@H](CO)[C@@H](O)[C@H](O)[C@H]6O)CC[C@]5(C)[C@H]4CC[C@]3(C)[C@H]1[C@@H]2C [Timosaponin A-III],95.12
13,CC(=O)O[C@@H]1C[C@H](O)[C@@]23CO[C@@H](O)[C@]1(C)[C@@H]2C[C@@H](O)[C@]1(C)[C@@H]3C(=O)[C@H](OC(C)=O)[C@@]2(C)[C@H](c3ccoc3)C[C@H]3O[C@]321 [Toosendanin],72.37
14,CN[C@H](CC(C)C)C(=O)N[C@H]1C(=O)N[C@@H](CC(N)=O)C(=O)N[C@H]2C(=O)N[C@H]3C(=O)N[C@H](C(=O)N[C@H](C(=O)O)c4cc(O)cc(O)c4-c4cc3ccc4O)[C@H](O)c3ccc(c(Cl)c3)Oc3cc2cc(c3O[C@@H]2O[C@H](CO)[C@@H](O)[C@H](O)[C@H]2O[C@H]2C[C@](C)(N)[C@H](O)[C@H](C)O2)Oc2ccc(cc2Cl)[C@H]1O [Vancomycin],96.04
15,COc1cc2/c(=N/c3ccc(Br)cc3F)nc[nH]c2cc1OCC1CCN(C)CC1 [Vandetanib],104.95
16,CC(=O)CC(c1ccccc1)c1c(O)c2ccccc2oc1=O (centres unmarked) [Warfarin sodium],84.05
17,COc1c(O)cc(O)c2c(=O)cc(-c3ccccc3)oc12 [Wogonin],106.17
18,COc1cc(O)c2c(c1C(=O)/C=C/c1ccc(O)cc1)OC(C)(C)C(O)C2 (centres unmarked) [Xanthohumol L],100.78
19,COc1cc(O)c(CC=C(C)C)c(O)c1C(=O)/C=C/c1ccc(O)cc1 [Xanthohumol],81.19
20,CCC/C=C1\OC(=O)C2=C1CCC=C2 [Z-Ligustilide],83.60
21,Cc1cn([C@H]2C[C@H](N=[N+]=[N-])[C@@H](CO)O2)c(=O)[nH]c1=O [Zidovudine],73.04
22,CC(NC(C)(C)C)C(=O)c1cccc(Cl)c1 (centres unmarked) [bupropion hydrochloride],120.79
23,O=C(O)Cc1ccccc1Nc1c(Cl)cccc1Cl [diclofenzc],97.62
24,"COc1c(O)c(O)cc2oc(-c3ccc(O)c(O)c3)c(O)c(=O)c12 [g2, 2-(3,4-Dihydroxyphenyl)-3,6,7-trihydroxy-5-methoxy-4H-1-benzopyran-4-one]",59.87
25,O=C(O)/C=C/c1ccc(O)cc1 [p-Coumaric acid],98.98
26,COC(=O)[C@@]1(C)CC[C@]2(C(=O)O)CC[C@]3(C)C(=CC[C@@H]4[C@@]5(C)C[C@H](O)[C@H](O)[C@@](C)(CO)[C@@H]5CC[C@]43C)[C@@H]2C1 [phytolaccagenin],85.42
